Experimental data: publication PMC7995890, “Inhibition of Phosphodiesterase 5 Promotes the Aromatase-Mediated Estrogen Biosynthesis in Osteoblastic Cells by Activation of cGMP/PKG/SHP2 Pathway” (Frontiers in Endocrinology, 2021)

Molecular target: PDE5A (Homo sapiens, UniProt O76074)
Assay: PDE-Glo assay with purified recombinant human PDE5A; supported by cellular thermal shift assay in HEK293T lysate
Format: biochemical

IC50: 9.91 µM
SMILES: COc1ccc(-c2oc3c(CC=C(C)C)c(OCc4ccccc4)cc(O)c3c(=O)c2O)cc1 [compound 14, 7-O-benzylicaritin]
